Test results published in patent US8952024B2, “Herbicidal pyrimidone derivatives” (E I du Pont de Nemours and Company, priority 2009, dated 2015).

Legend:
Assay in all cases: Test D pre-/postemergence plant response
Format in all cases: in vivo
[1] = system: purslane (common purslane, Portulaca oleracea)
Summary of the method: (§1)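 Ratings come from greenhouse-grown weeds in loam and sand treated pre- or postemergence (postemergence height 2 to 18 cm). Evaluation after 14–21 days, visual, relative to controls, on a 0–100 control scale.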

[2] = system: nutsedge (purple nutsedge, Cyperus rotundus)
Summary of the method: as §1

[3] = system: black mustard (Brassica nigra)
Summary of the method: as §1

[4] = system: field bindweed (Convolvulus arvensis)
Summary of the method: as §1

[5] = system: Surinam grass (Brachiaria decumbens)
Summary of the method: as §1

[6] = system: chickweed (common chickweed, Stellaria media); settings: Postemergence
Summary of the method: as §1

[7] = system: Italian ryegrass (Lolium multiflorum)
Summary of the method: as §1

[8] = system: naked crabgrass (Digitaria nuda)
Summary of the method: as §1

[9] = system: groundsel (common groundsel, Senecio vulgaris); settings: Postemergence
Summary of the method: as §1

[10] = system: bermudagrass (Cynodon dactylon)
Summary of the method: as §1

[11] = system: morningglory (pitted morningglory, Ipomoea lacunosa)
Summary of the method: as §1

[12] = system: signalgrass (broadleaf signalgrass, Brachiaria platyphylla)
Summary of the method: as §1

[13] = system: guineagrass (Panicum maximum)
Summary of the method: as §1

[14] = system: quackgrass (Elytrigia repens)
Summary of the method: as §1

[15] = system: sowthistle (common sowthistle, Sonchus oleraceous)
Summary of the method: as §1

[16] = system: Russian thistle (Salsola kali)
Summary of the method: as §1

[17] = system: large crabgrass (Digitaria sanguinalis)
Summary of the method: as §1

[18] = Postemergence, 16 g ai/ha, scale 0 to 100
[19] = Postemergence, 31 g ai/ha, scale 0 to 100
[20] = Postemergence, 125 g ai/ha, scale 0 to 100 (0 no effect, 100 complete control)
[21] = Postemergence, 62 g ai/ha, scale 0 to 100 (0 no effect, 100 complete control)
[22] = Preemergence, 16 g ai/ha, scale 0 to 100, 0 no effect, 100 complete control
[23] = Preemergence, 31 g ai/ha, scale 0 to 100 (0 no effect, 100 complete control)
[24] = Preemergence, 62 g ai/ha, scale 0 to 100
[25] = Preemergence, 125 g ai/ha, scale 0 to 100
[26] = Postemergence, 31 g ai/ha, scale 0 to 100 (0 no effect, 100 complete control)
[27] = 125 g ai/ha, scale 0 to 100 (0 no effect, 100 complete control)

## Cc1c(F)cccc1-n1c(-c2ccccc2)ncc(C(=O)C2=C(O)CCCC2=O)c1=O [Compound 47, 3-(3-fluoro-2-methylphenyl)-5-[(2-hydroxy-6-oxo-1-cyclohexen-1-yl)carbonyl]-2-phenyl-4(3H)-pyrimidinone]
[1]; [18]
  Plant response rating, Purslane: 20
[1]; [19]
  Plant response rating, Purslane: 20
[1]; [20]
  Plant response rating, Purslane: 30
[1]; [21]
  Plant response rating, Purslane: 30
[1]; [22]
  Plant response rating, Purslane: 0
[1]; [23]
  Plant response rating, Purslane: 0
[1]; [24]
  Plant response rating, Purslane: 95
[1]; [25]
  Plant response rating, Purslane: 100
[2]; [18]
  Plant response rating, Nutsedge, Purple: 0
[2]; [19]
  Plant response rating, Nutsedge, Purple: 0
[2]; [20]
  Plant response rating, Nutsedge, Purple: 20
[2]; [21]
  Plant response rating, Nutsedge, Purple: 10
[2]; [22]
  Plant response rating, Nutsedge, Purple: 0
[2]; [23]
  Plant response rating, Nutsedge, Purple: 0
[2]; [24]
  Plant response rating, Nutsedge, Purple: 10
[2]; [25]
  Plant response rating, Nutsedge, Purple: 35
[3]; [18]
  Plant response rating, Black Mustard: 95
[3]; [26]
  Plant response rating, Black Mustard: 100
[3]; [20]
  Plant response rating, Black Mustard: 100
[3]; [21]
  Plant response rating, Black Mustard: 100
[3]; [22]
  Plant response rating, Black Mustard: 0
[3]; [23]
  Plant response rating, Black Mustard: 65
[3]; [24]
  Plant response rating, Black Mustard: 80
[3]; [25]
  Plant response rating, Black Mustard: 100
[4]; [18]
  Plant response rating, Field Bindweed: 35
[4]; [19]
  Plant response rating, Field Bindweed: 40
[4]; [20]
  Plant response rating, Field Bindweed: 65
[4]; [21]
  Plant response rating, Field Bindweed: 50
[4]; [22]
  Plant response rating, Field Bindweed: 0
[4]; [23]
  Plant response rating, Field Bindweed: 0
[4]; [24]
  Plant response rating, Field Bindweed: 0
[4]; [25]
  Plant response rating, Field Bindweed: 35
[5]; [18]
  Plant response rating, Surinam Grass: 35
[5]; [19]
  Plant response rating, Surinam Grass: 50
[5]; [20]
  Plant response rating, Surinam Grass: 70
[5]; [21]
  Plant response rating, Surinam Grass: 60
[5]; [22]
  Plant response rating, Surinam Grass: 0
[6]; 16 g ai/ha, scale 0 to 100
  Plant response rating, Chickweed: 50
[6]; 31 g ai/ha, scale 0 to 100
  Plant response rating, Chickweed: 65
[6]; [27]
  Plant response rating, Chickweed: 65
[7]; [18]
  Plant response rating, Ryegrass, Italian: 0
[7]; [19]
  Plant response rating, Ryegrass, Italian: 10
[7]; [20]
  Plant response rating, Ryegrass, Italian: 30
[7]; [21]
  Plant response rating, Ryegrass, Italian: 20
[7]; [22]
  Plant response rating, Ryegrass, Italian: 0
[7]; [23]
  Plant response rating, Ryegrass, Italian: 0
[7]; [25]
  Plant response rating, Ryegrass, Italian: 0
[7]; Preemergence, rate not given, scale 0 to 100, 0 no effect, 100 complete control
  Plant response rating, Ryegrass, Italian: 0
[8]; [18]
  Plant response rating, Crabgrass, Naked: 20
[8]; [19]
  Plant response rating, Crabgrass, Naked: 35
[8]; [20]
  Plant response rating, Crabgrass, Naked: 65
[8]; [21]
  Plant response rating, Crabgrass, Naked: 35
[8]; [22]
  Plant response rating, Crabgrass, Naked: 0
[8]; [23]
  Plant response rating, Crabgrass, Naked: 0
[8]; [24]
  Plant response rating, Crabgrass, Naked: 60
[8]; [25]
  Plant response rating, Crabgrass, Naked: 98
[9]; 16 g ai/ha, scale 0 to 100
  Plant response rating, Groundsel: 100
[9]; 31 g ai/ha, scale 0 to 100
  Plant response rating, Groundsel: 100
[9]; [27]
  Plant response rating, Groundsel: 100
[9]; 62 g ai/ha, scale 0 to 100 (0 no effect, 100 complete control)
  Plant response rating, Groundsel: 100
[10]; [18]
  Plant response rating, Bermudagrass: 50
[10]; [26]
  Plant response rating, Bermudagrass: 50
[10]; [20]
  Plant response rating, Bermudagrass: 90
[10]; [21]
  Plant response rating, Bermudagrass: 70
[10]; [22]
  Plant response rating, Bermudagrass: 10
[10]; [23]
  Plant response rating, Bermudagrass: 25
[10]; [24]
  Plant response rating, Bermudagrass: 50
[10]; [25]
  Plant response rating, Bermudagrass: 100
[11]; [18]
  Plant response rating, Morningglory: 5
[11]; [19]
  Plant response rating, Morningglory: 5
[11]; [20]
  Plant response rating, Morningglory: 50
[11]; [22]
  Plant response rating, Morningglory: 0
[11]; [23]
  Plant response rating, Morningglory: 0
[11]; [24]
  Plant response rating, Morningglory: 20
[11]; [25]
  Plant response rating, Morningglory: 65
[12]; [18]
  Plant response rating, Signalgrass: 0
[12]; [19]
  Plant response rating, Signalgrass: 5
[12]; [20]
  Plant response rating, Signalgrass: 20
[12]; [21]
  Plant response rating, Signalgrass: 15
[12]; [22]
  Plant response rating, Signalgrass: 0
[12]; [23]
  Plant response rating, Signalgrass: 0
[12]; [25]
  Plant response rating, Signalgrass: 90
[13]; [18]
  Plant response rating, Guineagrass: 10
[13]; [19]
  Plant response rating, Guineagrass: 20
[13]; [20]
  Plant response rating, Guineagrass: 30
[13]; [21]
  Plant response rating, Guineagrass: 20
[13]; [22]
  Plant response rating, Guineagrass: 0
[13]; [23]
  Plant response rating, Guineagrass: 0
[13]; [24]
  Plant response rating, Guineagrass: 0
[13]; [25]
  Plant response rating, Guineagrass: 0
[14]; [18]
  Plant response rating, Quackgrass: 0
[14]; [19]
  Plant response rating, Quackgrass: 0
[14]; [20]
  Plant response rating, Quackgrass: 5
[14]; [21]
  Plant response rating, Quackgrass: 0
[14]; [22]
  Plant response rating, Quackgrass: 0
[14]; [23]
  Plant response rating, Quackgrass: 0
[14]; [25]
  Plant response rating, Quackgrass: 0
[15]; [18]
  Plant response rating, Sowthistle: 90
[15]; [19]
  Plant response rating, Sowthistle: 100
[15]; [20]
  Plant response rating, Sowthistle: 100
[15]; [21]
  Plant response rating, Sowthistle: 100
[15]; [22]
  Plant response rating, Sowthistle: 65
[15]; [23]
  Plant response rating, Sowthistle: 65
[15]; [25]
  Plant response rating, Sowthistle: 100
[16]; [18]
  Plant response rating, Russian Thistle: 20
[16]; [21]
  Plant response rating, Russian Thistle: 20
[16]; [22]
  Plant response rating, Russian Thistle: 0
[16]; [25]
  Plant response rating, Russian Thistle: 100
[17]; [18]
  Plant response rating, Crabgrass, Large: 20
[17]; [19]
  Plant response rating, Crabgrass, Large: 50
[17]; [20]
  Plant response rating, Crabgrass, Large: 65
[17]; [21]
  Plant response rating, Crabgrass, Large: 60
[17]; [22]
  Plant response rating, Crabgrass, Large: 0
[17]; [23]
  Plant response rating, Crabgrass, Large: 0
[17]; [24]
  Plant response rating, Crabgrass, Large: 5
[17]; [25]
  Plant response rating, Crabgrass, Large: 95
